Results published in ChEMBL document CHEMBL4699412, “Understanding the mechanism of action of pyrrolo[3,2-b]quinoxaline-derivatives as kinase inhibitors” (RSC Med Chem, 2020).
pEC50, pIC50: −log10 of the molar value.

Columns and labels:
[1] = system: Maver1; experiment: cells; conditions: Homo sapiens, Maver1, 72 h
[2] = target: T1, Ephrin type-B receptor 4 (Homo sapiens, UniProt P54760); experiment: Inhibition of full-length human EPHB4 expressed in MEF cells assessed as autophosphorylation by sandwitch-ELISA; type: cell-based
T1 sequence (P54760 whole entry): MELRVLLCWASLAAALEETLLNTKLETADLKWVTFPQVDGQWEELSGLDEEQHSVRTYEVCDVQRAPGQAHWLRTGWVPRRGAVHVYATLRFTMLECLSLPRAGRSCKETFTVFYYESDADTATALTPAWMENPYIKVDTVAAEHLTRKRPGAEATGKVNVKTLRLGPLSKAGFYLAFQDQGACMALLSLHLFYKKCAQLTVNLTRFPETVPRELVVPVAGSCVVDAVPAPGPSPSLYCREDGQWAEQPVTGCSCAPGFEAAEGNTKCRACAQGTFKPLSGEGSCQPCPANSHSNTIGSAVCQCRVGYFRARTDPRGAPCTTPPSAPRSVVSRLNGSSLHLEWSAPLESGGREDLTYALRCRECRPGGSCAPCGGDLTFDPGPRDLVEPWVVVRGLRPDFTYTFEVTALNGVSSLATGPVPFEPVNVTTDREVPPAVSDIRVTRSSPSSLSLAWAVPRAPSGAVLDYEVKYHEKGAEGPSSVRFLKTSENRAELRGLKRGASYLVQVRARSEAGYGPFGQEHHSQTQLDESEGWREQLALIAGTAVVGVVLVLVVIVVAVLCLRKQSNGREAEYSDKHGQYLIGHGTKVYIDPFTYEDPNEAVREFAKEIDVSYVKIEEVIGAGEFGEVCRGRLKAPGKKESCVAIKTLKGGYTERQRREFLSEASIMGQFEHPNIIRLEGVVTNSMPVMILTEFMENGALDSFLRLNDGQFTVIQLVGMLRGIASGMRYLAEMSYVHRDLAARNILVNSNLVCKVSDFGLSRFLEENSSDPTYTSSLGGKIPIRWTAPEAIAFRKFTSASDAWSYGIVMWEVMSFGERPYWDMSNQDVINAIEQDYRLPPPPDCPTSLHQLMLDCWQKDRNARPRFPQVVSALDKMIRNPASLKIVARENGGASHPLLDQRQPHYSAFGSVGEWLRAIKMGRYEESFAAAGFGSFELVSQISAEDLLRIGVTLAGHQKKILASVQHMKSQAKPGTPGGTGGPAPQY

[3] = system: JeKo-1; experiment: cells; conditions: Homo sapiens, JeKo-1, 72 h
[4] = Antitumor activity against human Ri1 cells xenografted in NOD-SCID mouse assessed as fold change in tumor size at 100 mg/kg, ip administered for 2 weeks by caliper method relative to control; type: functional, Ri-1
[5] = cells; conditions: Homo sapiens, Ri-1, 72 h
[6] = cells; conditions: Homo sapiens, PCL12, 72 h
[7] = target: T2, Ephrin type-A receptor 3 (Homo sapiens) (UniProt P29320); experiment: Binding affinity to EPHA3 (unknown origin) assessed as increase in change in melting temperature by differential scanning fluorimetric analysis
T2 sequence (whole entry): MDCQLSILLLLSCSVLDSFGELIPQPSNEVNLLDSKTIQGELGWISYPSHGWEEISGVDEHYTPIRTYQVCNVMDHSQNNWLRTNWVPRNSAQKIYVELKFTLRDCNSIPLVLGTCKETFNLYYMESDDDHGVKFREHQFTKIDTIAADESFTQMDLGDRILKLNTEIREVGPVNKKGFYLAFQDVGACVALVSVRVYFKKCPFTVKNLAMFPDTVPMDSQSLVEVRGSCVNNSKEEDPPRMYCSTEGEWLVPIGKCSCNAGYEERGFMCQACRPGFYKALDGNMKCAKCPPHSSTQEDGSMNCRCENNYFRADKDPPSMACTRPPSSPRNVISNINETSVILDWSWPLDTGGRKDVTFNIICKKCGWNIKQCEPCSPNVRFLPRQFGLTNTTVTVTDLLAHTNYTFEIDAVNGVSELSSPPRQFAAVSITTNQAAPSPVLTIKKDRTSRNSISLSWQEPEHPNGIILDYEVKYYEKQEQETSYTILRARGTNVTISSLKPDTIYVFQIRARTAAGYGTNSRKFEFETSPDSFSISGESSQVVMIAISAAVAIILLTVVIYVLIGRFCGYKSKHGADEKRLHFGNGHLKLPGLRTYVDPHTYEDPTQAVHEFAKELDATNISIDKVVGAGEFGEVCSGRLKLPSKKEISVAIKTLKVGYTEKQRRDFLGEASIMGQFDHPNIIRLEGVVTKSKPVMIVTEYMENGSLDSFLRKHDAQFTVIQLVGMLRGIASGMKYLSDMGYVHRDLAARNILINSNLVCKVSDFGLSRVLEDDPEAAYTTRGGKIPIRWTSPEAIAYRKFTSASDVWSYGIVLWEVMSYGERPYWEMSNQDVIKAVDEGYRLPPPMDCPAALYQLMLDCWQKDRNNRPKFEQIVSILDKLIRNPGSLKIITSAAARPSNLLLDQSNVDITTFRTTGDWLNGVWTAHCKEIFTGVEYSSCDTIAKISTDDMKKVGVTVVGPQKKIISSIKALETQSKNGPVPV

[8] = cells; conditions: Homo sapiens, MEC1, 72 h
[9] = cells; conditions: Homo sapiens, SU-DHL-1, 72 h
[10] = Toxicity in NOD-SCID nude mouse xenografted with human Ri1 cells assessed as body weight loss at 100 mg/kg, ip once every 5 days; conditions: in vivo, 360 h
[11] = target: Tyrosine-protein kinase Lyn (Homo sapiens) (UniProt P07948); experiment: Inhibition of wild-type human partial length LYN (C219 to Q511 residues) expressed in bacterial expression system at 1 uM by Kinomescan method relative to control
[12] = target: Tyrosine-protein kinase Yes (Homo sapiens) (UniProt P07947); experiment: Inhibition of wild-type human partial length YES (T257 to L543 residues) expressed in bacterial expression system at 1 uM by Kinomescan method relative to control
[13] = target: Tyrosine-protein kinase BTK (Homo sapiens) (UniProt Q06187); experiment: Inhibition of wild-type human full length BTK (M1 to S659 residues) expressed in mammalian expression system at 1 uM by Kinomescan method relative to control
[14] = target: Tyrosine-protein kinase CSK (Homo sapiens) (UniProt P41240); experiment: Inhibition of wild-type human full length CSK (M1 to L450 residues) expressed in bacterial expression system at 1 uM by Kinomescan method relative to control
[15] = Toxicity in NOD-SCID nude mouse xenografted with human Ri1 cells assessed as body weight loss at 100 mg/kg, ip; type: organism-based; conditions: in vivo
[16] = system: HUVEC; experiment: Antiangiogenic activity against HUVEC cells assessed as reduction in tube formation incubated for 15 hrs by matrigel-based assay relative to control; type: functional, Homo sapiens
[17] = system: HUVEC; experiment: Antiangiogenic activity against HUVEC cells assessed as reduction in total loops incubated for 15 hrs by matrigel-based assay relative to control; type: functional, Homo sapiens
[18] = system: HUVEC; experiment: Antiangiogenic activity against HUVEC cells assessed as reduction in total branching points incubated for 15 hrs by matrigel-based assay relative to control; type: functional, Homo sapiens
[19] = Toxicity in NOD-SCID nude mouse xenografted with human Ri1 cells assessed as swelling surrounding the area of injection at 100 mg/kg, ip; type: organism-based; conditions: in vivo

Sequence of Tyrosine-protein kinase Yes (Homo sapiens) (P07947 2-543 limits assumed): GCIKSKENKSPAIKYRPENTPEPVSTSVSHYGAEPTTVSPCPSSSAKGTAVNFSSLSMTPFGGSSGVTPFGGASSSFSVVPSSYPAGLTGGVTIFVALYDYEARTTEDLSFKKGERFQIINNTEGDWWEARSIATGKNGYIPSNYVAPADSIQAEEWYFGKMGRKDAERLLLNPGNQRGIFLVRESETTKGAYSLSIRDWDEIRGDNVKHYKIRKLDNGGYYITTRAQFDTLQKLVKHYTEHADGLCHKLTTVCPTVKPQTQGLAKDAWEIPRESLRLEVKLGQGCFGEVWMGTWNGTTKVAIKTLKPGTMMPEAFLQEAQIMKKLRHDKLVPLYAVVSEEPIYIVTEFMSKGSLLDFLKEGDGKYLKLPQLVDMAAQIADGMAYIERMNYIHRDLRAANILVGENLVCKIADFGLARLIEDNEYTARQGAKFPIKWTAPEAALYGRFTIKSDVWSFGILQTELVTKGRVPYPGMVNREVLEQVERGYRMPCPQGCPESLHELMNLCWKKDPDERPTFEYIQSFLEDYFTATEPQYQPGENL
Sequence of Tyrosine-protein kinase CSK (Homo sapiens) (P41240 2-450 limits assumed): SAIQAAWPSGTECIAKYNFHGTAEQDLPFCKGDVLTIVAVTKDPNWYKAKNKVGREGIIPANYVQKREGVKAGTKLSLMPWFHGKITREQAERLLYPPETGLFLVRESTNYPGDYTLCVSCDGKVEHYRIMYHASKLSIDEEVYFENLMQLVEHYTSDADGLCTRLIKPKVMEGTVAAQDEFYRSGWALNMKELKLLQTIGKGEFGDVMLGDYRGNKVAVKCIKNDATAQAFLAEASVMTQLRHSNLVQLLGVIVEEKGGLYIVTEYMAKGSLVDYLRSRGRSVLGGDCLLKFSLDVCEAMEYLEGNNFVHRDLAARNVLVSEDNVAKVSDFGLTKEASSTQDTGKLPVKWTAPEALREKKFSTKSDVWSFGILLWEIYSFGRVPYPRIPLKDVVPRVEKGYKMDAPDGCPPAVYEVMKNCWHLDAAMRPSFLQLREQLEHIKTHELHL
Sequence of Tyrosine-protein kinase Lyn (Homo sapiens) (P07948 2-512 limits assumed): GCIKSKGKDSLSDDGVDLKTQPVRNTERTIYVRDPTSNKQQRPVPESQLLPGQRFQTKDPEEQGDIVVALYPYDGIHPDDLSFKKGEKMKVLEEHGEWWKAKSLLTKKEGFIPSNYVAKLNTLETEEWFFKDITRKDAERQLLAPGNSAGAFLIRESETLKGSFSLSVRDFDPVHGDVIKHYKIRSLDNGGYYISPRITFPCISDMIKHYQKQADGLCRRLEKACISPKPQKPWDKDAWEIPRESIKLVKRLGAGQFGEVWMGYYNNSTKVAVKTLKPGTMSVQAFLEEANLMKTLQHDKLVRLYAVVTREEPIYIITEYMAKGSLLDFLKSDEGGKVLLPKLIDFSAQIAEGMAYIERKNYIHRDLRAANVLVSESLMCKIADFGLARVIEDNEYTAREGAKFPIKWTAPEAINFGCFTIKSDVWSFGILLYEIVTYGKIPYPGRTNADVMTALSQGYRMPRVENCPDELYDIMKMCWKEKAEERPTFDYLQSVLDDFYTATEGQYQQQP
Sequence of Tyrosine-protein kinase BTK (Homo sapiens) (Q06187 whole entry, the tested form may be a part): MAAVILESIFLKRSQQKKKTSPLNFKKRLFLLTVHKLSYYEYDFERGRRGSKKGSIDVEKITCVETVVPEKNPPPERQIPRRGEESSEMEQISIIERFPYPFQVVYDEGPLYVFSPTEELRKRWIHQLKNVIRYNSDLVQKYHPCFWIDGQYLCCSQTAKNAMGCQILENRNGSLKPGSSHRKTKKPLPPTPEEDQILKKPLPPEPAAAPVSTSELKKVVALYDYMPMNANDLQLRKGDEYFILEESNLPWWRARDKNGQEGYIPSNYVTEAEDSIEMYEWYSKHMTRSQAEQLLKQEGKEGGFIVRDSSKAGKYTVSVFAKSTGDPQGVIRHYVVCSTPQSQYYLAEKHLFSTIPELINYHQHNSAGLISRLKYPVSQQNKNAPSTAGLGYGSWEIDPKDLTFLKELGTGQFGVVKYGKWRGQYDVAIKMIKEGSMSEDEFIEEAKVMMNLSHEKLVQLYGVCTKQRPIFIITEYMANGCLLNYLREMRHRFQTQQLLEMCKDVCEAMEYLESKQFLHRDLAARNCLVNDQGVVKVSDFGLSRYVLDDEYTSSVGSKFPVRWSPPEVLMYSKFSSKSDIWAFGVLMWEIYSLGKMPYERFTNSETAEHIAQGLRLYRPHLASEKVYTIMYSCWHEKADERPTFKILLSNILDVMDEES

pIC50 [1]	pEC50 [2]	pIC50 [3]	pIC50 [5]	pIC50 [6]	ΔTm [7] [°C]	pIC50 [8]	pIC50 [9]	% control [11] [%]	% control [12] [%]	% control [13] [%]	% control [14] [%]	SMILES	fold change (FC) [4]	Activity [10]	Activity [15]	inhibition (INH) [16] [%]	inhibition (INH) [17] [%]	inhibition (INH) [18] [%]	Activity [19]
6.60	5.96	6.60	6.60	6.60	19.3	6.60	6.60					CC(C)(C)c1cc(NC(=O)Nc2ccc(-n3c(N)c(C(N)=O)c4nc5ccccc5nc43)cc2)n(-c2ccc3ncccc3c2)n1	3	Non-Toxic					
								0.5	1.9	3.3	0.65	Cc1ccc(-n2nc(C(C)(C)C)cc2NC(=O)Nc2ccc(-n3c(N)c(C(N)=O)c4nc5ccc(NCCCN)cc5nc43)cc2)cc1							
6.22	6.44	6.22	6.22	6.22	17.3	6.22	6.22	0.85	9.6	0.95	0.9	Cc1ccc(-n2nc(C(C)(C)C)cc2NC(=O)Nc2ccc(-n3c(N)c(C(N)=O)c4nc5ccccc5nc43)cc2)cc1			Toxic	65	100	90	Toxic
